Experimental data as given in ChEMBL document CHEMBL4219211, “Design and discovery of thioether and nicotinamide containing sorafenib analogues as multikinase inhibitors targeting B-Raf, B-RafV600E and VEGFR-2” (Bioorg Med Chem, 2018).
Calls of active or inactive are those of the source. The calls are words filed in the database; no cut-off is given here.

What was measured:
HCT-116 = experiment: cells; settings: Homo sapiens, HCT-116, 48 h
Description: Cytotoxicity against human HCT116 cells after 48 hrs by MTT assay

B16-BL6 = experiment: cells; settings: Mus musculus, B16-BL6, 48 h
Description: Cytotoxicity against mouse B16-BL6 cells after 48 hrs by MTT assay

[1] = molecular target: Vascular endothelial growth factor receptor 2 (Homo sapiens, UniProt P35968); experiment: Inhibition of VEGFR2 (unknown origin) using FAM-labelled peptide as substrate pretreated for 10 mins followed by substrate addition measured after 30 mins by caliper mobility shift assay
Vascular endothelial growth factor receptor 2, sequence (P35968 whole entry): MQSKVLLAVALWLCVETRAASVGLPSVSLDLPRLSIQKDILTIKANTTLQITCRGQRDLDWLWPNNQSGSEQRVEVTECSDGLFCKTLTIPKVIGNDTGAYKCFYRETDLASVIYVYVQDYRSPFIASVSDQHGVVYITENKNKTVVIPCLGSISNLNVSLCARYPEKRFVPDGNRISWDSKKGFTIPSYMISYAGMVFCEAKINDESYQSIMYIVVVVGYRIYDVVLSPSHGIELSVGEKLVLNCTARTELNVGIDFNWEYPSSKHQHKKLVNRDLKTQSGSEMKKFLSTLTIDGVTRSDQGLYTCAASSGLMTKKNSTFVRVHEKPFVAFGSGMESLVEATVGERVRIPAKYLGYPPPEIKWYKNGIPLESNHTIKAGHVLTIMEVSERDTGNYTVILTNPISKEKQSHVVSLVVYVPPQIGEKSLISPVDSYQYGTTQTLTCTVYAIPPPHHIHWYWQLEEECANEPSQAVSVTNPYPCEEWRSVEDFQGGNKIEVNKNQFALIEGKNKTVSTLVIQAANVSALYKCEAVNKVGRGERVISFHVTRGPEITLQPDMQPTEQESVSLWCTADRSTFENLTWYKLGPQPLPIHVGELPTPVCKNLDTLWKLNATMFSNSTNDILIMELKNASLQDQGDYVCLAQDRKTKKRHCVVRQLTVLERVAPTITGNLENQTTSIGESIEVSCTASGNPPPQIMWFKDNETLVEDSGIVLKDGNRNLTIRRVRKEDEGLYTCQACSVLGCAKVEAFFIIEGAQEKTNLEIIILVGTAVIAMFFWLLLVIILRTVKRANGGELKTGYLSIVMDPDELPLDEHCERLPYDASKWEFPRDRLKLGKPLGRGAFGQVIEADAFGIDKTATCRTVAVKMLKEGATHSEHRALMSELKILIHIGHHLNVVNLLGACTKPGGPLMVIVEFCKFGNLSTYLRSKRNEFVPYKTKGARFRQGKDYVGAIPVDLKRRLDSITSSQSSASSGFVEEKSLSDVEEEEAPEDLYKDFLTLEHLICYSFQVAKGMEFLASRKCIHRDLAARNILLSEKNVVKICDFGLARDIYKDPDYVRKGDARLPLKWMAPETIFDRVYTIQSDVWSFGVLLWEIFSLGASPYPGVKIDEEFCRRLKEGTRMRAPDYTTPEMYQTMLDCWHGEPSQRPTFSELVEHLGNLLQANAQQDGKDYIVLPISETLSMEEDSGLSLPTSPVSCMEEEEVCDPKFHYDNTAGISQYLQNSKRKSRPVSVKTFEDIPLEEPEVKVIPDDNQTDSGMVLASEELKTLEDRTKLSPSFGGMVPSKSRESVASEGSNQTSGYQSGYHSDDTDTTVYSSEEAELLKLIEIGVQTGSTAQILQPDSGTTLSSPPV

[2] = molecular target: Serine/threonine-protein kinase B-raf (Homo sapiens, UniProt P15056, V600E); experiment: Inhibition of B-Raf V600E mutant (unknown origin) using MEK1 as substrate measured after 2 hrs by ELISA
Serine/threonine-protein kinase B-raf (Homo sapiens, UniProt P15056, V600E), sequence (P15056 2-766 V600E limits assumed): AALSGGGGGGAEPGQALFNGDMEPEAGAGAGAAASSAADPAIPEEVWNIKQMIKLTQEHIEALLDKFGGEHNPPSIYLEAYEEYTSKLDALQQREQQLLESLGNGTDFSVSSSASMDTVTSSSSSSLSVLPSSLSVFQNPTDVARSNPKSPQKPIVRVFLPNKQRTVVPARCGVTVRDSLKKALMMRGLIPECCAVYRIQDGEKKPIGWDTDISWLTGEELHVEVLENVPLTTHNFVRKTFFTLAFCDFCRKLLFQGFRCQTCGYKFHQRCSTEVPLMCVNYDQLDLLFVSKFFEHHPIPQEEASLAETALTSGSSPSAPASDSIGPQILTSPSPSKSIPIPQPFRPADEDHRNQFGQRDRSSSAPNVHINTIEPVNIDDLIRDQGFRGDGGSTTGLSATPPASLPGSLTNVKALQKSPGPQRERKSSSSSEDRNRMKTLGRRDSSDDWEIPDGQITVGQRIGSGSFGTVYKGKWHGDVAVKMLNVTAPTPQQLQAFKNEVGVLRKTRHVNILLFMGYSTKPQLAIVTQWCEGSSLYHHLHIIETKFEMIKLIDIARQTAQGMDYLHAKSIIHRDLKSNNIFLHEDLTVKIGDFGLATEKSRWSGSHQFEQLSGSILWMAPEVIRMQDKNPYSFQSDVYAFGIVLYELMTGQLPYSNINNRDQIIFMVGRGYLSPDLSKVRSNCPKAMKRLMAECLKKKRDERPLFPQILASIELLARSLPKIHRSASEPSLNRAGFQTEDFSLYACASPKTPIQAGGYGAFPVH

[3] = molecular target: Serine/threonine-protein kinase B-raf (Homo sapiens, UniProt P15056); experiment: Inhibition of B-Raf (unknown origin) using MEK1 as substrate measured after 2 hrs by ELISA
Serine/threonine-protein kinase B-raf (Homo sapiens, UniProt P15056), sequence (P15056 whole entry): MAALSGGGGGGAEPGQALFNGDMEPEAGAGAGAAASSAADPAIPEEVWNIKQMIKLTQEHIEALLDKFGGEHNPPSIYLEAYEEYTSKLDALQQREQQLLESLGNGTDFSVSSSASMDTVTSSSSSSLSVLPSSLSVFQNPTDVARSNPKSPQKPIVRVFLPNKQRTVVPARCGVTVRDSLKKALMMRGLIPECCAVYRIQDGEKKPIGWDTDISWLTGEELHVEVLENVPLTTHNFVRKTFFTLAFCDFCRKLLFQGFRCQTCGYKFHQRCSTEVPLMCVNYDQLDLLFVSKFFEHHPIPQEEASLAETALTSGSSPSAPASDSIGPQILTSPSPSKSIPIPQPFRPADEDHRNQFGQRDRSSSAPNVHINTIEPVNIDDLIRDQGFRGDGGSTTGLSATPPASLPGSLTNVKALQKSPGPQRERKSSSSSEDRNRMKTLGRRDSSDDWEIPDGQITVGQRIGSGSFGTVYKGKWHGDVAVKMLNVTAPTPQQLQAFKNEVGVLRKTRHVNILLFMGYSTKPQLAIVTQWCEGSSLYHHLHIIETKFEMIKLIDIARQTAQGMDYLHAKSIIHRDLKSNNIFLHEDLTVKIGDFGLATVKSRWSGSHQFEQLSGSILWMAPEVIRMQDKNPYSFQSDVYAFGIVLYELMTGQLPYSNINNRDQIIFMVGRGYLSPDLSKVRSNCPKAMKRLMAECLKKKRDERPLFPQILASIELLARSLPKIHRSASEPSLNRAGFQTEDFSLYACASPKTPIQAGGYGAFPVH

[4] = molecular target: Epidermal growth factor receptor (Homo sapiens, UniProt P00533); experiment: Inhibition of EGFR (unknown origin)
Epidermal growth factor receptor, sequence (P00533 whole entry): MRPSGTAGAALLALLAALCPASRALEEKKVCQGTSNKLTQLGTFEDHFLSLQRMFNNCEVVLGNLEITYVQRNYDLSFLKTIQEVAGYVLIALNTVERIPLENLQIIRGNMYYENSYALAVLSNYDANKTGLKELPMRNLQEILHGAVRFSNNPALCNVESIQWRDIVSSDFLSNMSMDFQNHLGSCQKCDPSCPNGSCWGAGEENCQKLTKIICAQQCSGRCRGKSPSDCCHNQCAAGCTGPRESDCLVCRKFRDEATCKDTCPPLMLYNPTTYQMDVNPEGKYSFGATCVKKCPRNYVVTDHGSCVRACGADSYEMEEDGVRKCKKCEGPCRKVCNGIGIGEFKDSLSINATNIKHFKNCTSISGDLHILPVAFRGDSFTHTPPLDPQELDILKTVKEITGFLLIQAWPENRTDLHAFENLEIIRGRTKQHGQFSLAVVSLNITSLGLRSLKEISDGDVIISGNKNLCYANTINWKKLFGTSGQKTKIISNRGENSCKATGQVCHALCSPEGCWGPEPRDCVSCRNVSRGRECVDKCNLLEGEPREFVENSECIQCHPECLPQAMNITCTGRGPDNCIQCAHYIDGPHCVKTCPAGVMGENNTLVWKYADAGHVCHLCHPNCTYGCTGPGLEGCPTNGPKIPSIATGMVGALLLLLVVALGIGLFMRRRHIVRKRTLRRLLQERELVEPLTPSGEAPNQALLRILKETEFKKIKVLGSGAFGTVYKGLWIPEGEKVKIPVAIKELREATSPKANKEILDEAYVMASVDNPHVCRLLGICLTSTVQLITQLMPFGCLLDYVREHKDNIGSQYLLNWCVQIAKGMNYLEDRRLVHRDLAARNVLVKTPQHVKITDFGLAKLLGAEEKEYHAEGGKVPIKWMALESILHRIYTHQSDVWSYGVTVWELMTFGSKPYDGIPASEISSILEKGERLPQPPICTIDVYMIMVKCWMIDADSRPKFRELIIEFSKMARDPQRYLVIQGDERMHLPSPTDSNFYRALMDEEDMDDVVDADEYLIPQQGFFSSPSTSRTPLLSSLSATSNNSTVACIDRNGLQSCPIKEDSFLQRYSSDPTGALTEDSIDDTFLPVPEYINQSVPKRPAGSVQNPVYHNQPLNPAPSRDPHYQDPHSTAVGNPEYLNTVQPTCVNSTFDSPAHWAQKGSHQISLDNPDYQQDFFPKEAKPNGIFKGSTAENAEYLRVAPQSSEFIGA

HUVEC [5] = experiment: Antiangiogenic activity against HUVEC assessed as reduction in tube formation at 0.05 uM after 6 hrs by matrigel based phase contrast microscopic analysis; type: functional, Homo sapiens; set-up: scale not given: the % may be the effect or the level left
[6] = molecular target: Mast/stem cell growth factor receptor Kit (Homo sapiens, UniProt P10721); experiment: Inhibition of c-KIT (unknown origin)
Mast/stem cell growth factor receptor Kit, sequence (P10721 whole entry): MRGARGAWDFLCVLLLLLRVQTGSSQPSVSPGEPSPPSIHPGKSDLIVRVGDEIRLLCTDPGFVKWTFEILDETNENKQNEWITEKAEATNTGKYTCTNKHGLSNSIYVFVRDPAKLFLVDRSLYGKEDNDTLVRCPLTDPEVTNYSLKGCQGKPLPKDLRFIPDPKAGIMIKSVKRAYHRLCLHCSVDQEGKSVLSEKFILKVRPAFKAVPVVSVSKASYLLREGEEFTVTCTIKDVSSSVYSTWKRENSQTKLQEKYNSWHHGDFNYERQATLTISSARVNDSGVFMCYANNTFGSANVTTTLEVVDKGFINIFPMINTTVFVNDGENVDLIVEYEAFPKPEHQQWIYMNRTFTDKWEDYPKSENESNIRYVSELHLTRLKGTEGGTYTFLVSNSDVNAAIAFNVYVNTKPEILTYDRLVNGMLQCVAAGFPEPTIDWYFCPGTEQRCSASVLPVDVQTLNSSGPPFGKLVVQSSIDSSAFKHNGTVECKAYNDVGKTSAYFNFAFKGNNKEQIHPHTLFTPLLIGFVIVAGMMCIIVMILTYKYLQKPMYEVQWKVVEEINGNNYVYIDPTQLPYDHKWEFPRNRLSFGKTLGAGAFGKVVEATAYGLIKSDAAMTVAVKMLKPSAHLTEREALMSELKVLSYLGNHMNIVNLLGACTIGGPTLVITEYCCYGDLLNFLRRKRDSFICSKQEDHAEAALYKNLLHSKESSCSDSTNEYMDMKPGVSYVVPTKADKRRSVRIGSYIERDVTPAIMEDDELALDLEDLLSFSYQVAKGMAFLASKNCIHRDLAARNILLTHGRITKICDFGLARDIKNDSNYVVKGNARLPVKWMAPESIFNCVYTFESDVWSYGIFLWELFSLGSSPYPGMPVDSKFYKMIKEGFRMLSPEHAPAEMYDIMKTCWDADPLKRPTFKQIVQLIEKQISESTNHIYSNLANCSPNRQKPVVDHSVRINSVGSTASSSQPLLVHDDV

[7] = molecular target: T1, Receptor-type tyrosine-protein kinase FLT3 (Homo sapiens, UniProt P36888); experiment: Inhibition of FLT3 (unknown origin)
T1 sequence (P36888 whole entry): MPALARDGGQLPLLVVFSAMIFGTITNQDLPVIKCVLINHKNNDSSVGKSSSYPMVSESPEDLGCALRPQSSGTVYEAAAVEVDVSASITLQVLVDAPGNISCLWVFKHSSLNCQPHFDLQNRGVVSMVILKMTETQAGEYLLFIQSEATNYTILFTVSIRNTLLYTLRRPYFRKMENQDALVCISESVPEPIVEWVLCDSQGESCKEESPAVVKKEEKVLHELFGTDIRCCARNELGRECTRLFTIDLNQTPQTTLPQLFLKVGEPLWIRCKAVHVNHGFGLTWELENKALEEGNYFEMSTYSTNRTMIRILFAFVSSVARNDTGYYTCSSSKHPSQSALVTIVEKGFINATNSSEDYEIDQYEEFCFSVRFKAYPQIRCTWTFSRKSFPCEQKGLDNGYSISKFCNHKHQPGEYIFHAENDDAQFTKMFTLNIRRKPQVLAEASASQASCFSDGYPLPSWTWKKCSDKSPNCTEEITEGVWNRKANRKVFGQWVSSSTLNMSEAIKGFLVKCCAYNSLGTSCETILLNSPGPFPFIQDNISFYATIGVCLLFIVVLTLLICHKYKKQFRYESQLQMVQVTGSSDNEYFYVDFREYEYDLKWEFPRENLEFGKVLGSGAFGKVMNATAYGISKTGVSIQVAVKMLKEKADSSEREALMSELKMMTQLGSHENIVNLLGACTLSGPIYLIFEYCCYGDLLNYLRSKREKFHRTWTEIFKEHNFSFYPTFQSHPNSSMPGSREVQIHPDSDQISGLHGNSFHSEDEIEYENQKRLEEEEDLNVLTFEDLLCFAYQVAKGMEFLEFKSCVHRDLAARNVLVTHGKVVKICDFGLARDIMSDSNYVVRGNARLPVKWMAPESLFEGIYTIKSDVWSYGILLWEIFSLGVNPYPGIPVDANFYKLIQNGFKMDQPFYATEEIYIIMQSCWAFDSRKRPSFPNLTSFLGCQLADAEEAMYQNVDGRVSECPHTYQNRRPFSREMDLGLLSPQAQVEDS

HUVEC [8] = experiment: Antiangiogenic activity against HUVEC assessed as reduction in tube formation at 0.1 uM after 6 hrs by matrigel based phase contrast microscopic analysis; type: functional, Homo sapiens; set-up: scale not given: the % may be the effect or the level left

| IC50 (HCT-116) | IC50 (B16-BL6) | IC50 [1] | IC50 [2] | IC50 [3] | IC50 [4] | IC50 [6] | IC50 [7] | Structure (SMILES) | Activity (HUVEC [5]) | Activity (HUVEC [5]; Homo sapiens) | Activity (HUVEC [8]) |
| --- | --- | --- | --- | --- | --- | --- | --- | --- | --- | --- | --- |
| 16.5 µM | > 100 µM | 133 nM | – | – | – | – | – | CNC(=O)c1ccc(Sc2cccc(NC(=S)Nc3ccc(Br)c(C(F)(F)F)c3)c2)nc1 | – | – | – |
| > 100 µM | > 100 µM | > 10000 nM | > 10000 nM | 9870 nM | – | – | – | CNC(=O)c1ccc(Sc2ccc(NC(=S)Nc3ccc(OC(F)(F)F)cc3)cc2)nc1 | – | – | – |
| 25.9 µM | 53.1 µM | > 10000 nM | 571 nM | 503 nM | – | – | – | CNC(=O)c1ccc(Sc2ccc(NC(=S)Nc3cccc(C(F)(F)F)c3)cc2)nc1 | – | – | – |
| 16.1 µM | 19.2 µM | 6910 nM | 1270 nM | 973 nM | – | – | – | CNC(=O)c1ccc(Sc2cccc(NC(=S)Nc3cccc(C(F)(F)F)c3)c2)nc1 | – | – | – |
| 5.18 µM | 19.8 µM | 63 nM | 16 nM | 17 nM | 596 nM | > 1000 nM | 781 nM | CNC(=O)c1ccc(Sc2cccc(NC(=S)Nc3ccc(Cl)c(C(F)(F)F)c3)c2)nc1 | 100% | – | – |
| 35.1 µM | 58.2 µM | 3860 nM | 539 nM | 442 nM | – | – | – | CNC(=O)c1ccc(Sc2cccc(NC(=S)Nc3ccc(F)c(F)c3)c2)nc1 | – | – | – |
| 22.2 µM | 52.6 µM | > 10000 nM | 892 nM | 810 nM | – | – | – | CNC(=O)c1ccc(Sc2ccc(NC(=S)Nc3ccc(F)c(F)c3)cc2)nc1 | – | – | – |
| 18.2 µM | 42.4 µM | 61 nM | 77 nM | 69 nM | – | – | – | CNC(=O)c1ccc(Sc2cccc(NC(=S)Nc3ccc(F)c(C(F)(F)F)c3)c2)nc1 | – | – | – |
| – | 36.5 µM | – | – | – | – | – | – | CNC(=O)c1cc(Oc2ccc(NC(=O)Nc3ccc(Cl)c(C(F)(F)F)c3)cc2)ccn1 [SORAFENIB] | – | Active | 100% |
| 5.8 µM | 39.6 µM | 102 nM | 65 nM | 48 nM | – | – | – | CNC(=O)c1ccc(Sc2ccc(NC(=O)Nc3ccc(F)c(C(F)(F)F)c3)cc2)nc1 | – | – | – |
| 17.3 µM | > 100 µM | 4020 nM | 392 nM | 280 nM | – | – | – | CNC(=O)c1ccc(Sc2cccc(NC(=S)Nc3ccc(F)c(Cl)c3)c2)nc1 | – | – | – |
| 5.02 µM | 54.2 µM | 887 nM | 169 nM | 158 nM | – | – | – | CNC(=O)c1ccc(Sc2cccc(NC(=S)Nc3cc(C(F)(F)F)cc(C(F)(F)F)c3)c2)nc1 | – | – | – |
| 24.5 µM | 91 µM | > 10000 nM | 7480 nM | 5850 nM | – | – | – | CNC(=O)c1ccc(Sc2cccc(NC(=S)Nc3ccc(OC(F)(F)F)cc3)c2)nc1 | – | – | – |
| 16.6 µM | 36.1 µM | 277 nM | – | – | – | – | – | CNC(=O)c1ccc(Sc2ccc(NC(=S)Nc3cc(C(F)(F)F)cc(C(F)(F)F)c3)cc2)nc1 | – | – | – |
| 4.9 µM | 23.5 µM | 46 nM | 28 nM | 27 nM | > 1000 nM | 701 nM | 949 nM | CNC(=O)c1ccc(Sc2ccc(NC(=S)Nc3ccc(Cl)c(C(F)(F)F)c3)cc2)nc1 | 100% | – | – |
| 7.09 µM | 45.2 µM | 508 nM | 196 nM | 93 nM | – | – | – | CNC(=O)c1ccc(Sc2ccc(NC(=O)Nc3cc(C(F)(F)F)cc(C(F)(F)F)c3)cc2)nc1 | – | – | – |
| 5.29 µM | 24.6 µM | 84 nM | 29 nM | 21 nM | > 1000 nM | 535 nM | 67 nM | CNC(=O)c1ccc(Sc2ccc(NC(=O)Nc3ccc(Cl)c(C(F)(F)F)c3)cc2)nc1 | 100% | – | – |
| 6.37 µM | 29.3 µM | 74 nM | 45 nM | 33 nM | – | – | – | CNC(=O)c1ccc(Sc2ccc(NC(=S)Nc3ccc(F)c(C(F)(F)F)c3)cc2)nc1 | – | – | – |
| 39.5 µM | 67.5 µM | 5990 nM | 857 nM | 791 nM | – | – | – | CNC(=O)c1ccc(Sc2cccc(NC(=S)Nc3ccc(Cl)cc3)c2)nc1 | – | – | – |
| 34.5 µM | 69.3 µM | 8660 nM | 1780 nM | 2060 nM | – | – | – | CNC(=O)c1ccc(Sc2ccc(NC(=S)Nc3ccc(Cl)cc3)cc2)nc1 | – | – | – |
